Source: US20150376654A1 (priority 2011, published 2015)
Where two headings read alike, the source gives them in different places.

How the values were obtained:
[1] = test system: Clostridium autoethanogenum DSM10061
Method: (§1) The ethanol tolerance of three acetogenic strains Clostridium ljungdahlii DSM13583, Clostridium autoethanogenum DSM10061, and C. autoethanogenum DSM23693 was tested in serum bottles.
(§2) Ethanol was added in various concentrations to an active growing culture at 37° C. in PETC medium (Table 1) with 30 psi steel mill gas as substrate. The media was prepared by using standard anaerobic techniques (Hungate R E. A roll tube method for cultivation of strict anaerobes, In Norris J R and Ribbons D W (eds.), Methods in Microbiology, vol. 3B. Academic Press, N Y, 1969: 117-132; Breznak J A and Costilow R N, Physicochemical factors in growth, In Gerhardt P (ed.), Methods for general and molecular bacteriology. American Society for Microbiology, Washington, 1994: 137-154). […] Slightly acidified water was used (0.005 M H2SO4) as mobile phase with a flow rate of 0.7 ml/min. To remove proteins and other cell residues, 400 μl samples were mixed with 100 μl of a 2% (w/v) 5-Sulfosalicylic acid and centrifuged at 14,000×g for 3 min to separate precipitated residues. 10 μl of the supernatant were then injected into the HPLC for analyses.

[2] = test system: Clostridium autoethanogenum DSM23693
Method: as §1, §2

[3] = test system: Clostridium ljungdahlii DSM13583; conditions: 50 g/L ethanol, serum bottle studies
Method: as §1, §2

[4] = test system: C. autoethanogenum DSM23693 transformed strain carrying plasmid pMTL85246-GroESL; conditions: PETC media, 30 psi steel mill gas, biomass at 600 nm
Method: (§3) To investigate whether overexpression of GroESL enhances ethanol tolerance of C. autoethanogenum DSM23693, both wild-type (WT), i.e. parental microorganism and transformed strain carrying plasmid pMTL85246-GroESL were challenged with different concentrations of ethanol (FIG. 8).
(§4) Growth experiments in triplicates were carried out in 50 ml PETC media (Table 1) in serum bottles sealed with rubber stoppers and 30 psi steel mill gas (collected from New Zealand Steel site in Glenbrook, NZ; composition: 44% CO, 32% N2, 22% CO2, 2% H2) in the headspace as sole energy and carbon source. […] All cultures were inoculated to the same optical density using the same pre-culture for either wild-type (parental) or transformed strain. Changes in biomass were measured spectrophotometrically at 600 nm until growth ceased. The maximum biomass of each culture was compared with the unchallenged culture.

[5] = test system: C. autoethanogenum DSM23693 wild-type (WT), parental; conditions: PETC media, 30 psi steel mill gas
Method: as §3, §4

[6] = test system: C. autoethanogenum DSM10061 chaperone over-expressing (pMTL83156-groESL) transformants; conditions: for OD600 reached: 37 h post inoculation, MMYF medium
Method: (§5) The experiment was first conducted as described above using PETC medium and autotrophic conditions with CO as substrate (FIG. 16a) and afterwards repeated using a different growth medium and heterotrophic conditions with fructose as substrate to rule out the effect of the growth media and substrate (FIG. 16b). A plasmid control was included. […] For ethanol challenge assay, 500 μL of two day old cultures were inoculated into each of five 60 mL serum bottles containing 20 mL of selective MMYF medium and incubated at 37° C. without agitation. […] Static incubation at 37° C. was allowed for 80-100 hours and the growth was monitored by measuring the optical density at a wavelength of 600 nm using Jenway 7300 spectrophotometer. Microscope examinations were routinely carried out.
(§6) The experiment was first conducted as described above using PETC medium and autotrophic conditions with CO as substrate (FIG. 16a) and afterwards repeated using a different growth medium and heterotrophic conditions with fructose as substrate to rule out the effect of the growth media and substrate (FIG. 16b). A plasmid control was included. Both plasmid control (pMTL83157) transformants and chaperone over-expressing (pMTL83156-groESL) transformants were cultured anaerobically in MMYF medium supplemented with freshly prepared 7.5 μg/mL thiamphenicol (final concentration). For ethanol challenge assay, 500 μL of two day old cultures were inoculated into each of five 60 mL serum bottles containing 20 mL of selective MMYF medium and incubated at 37° C. without agitation. […] Static incubation at 37° C. was allowed for 80-100 hours and the growth was monitored by measuring the optical density at a wavelength of 600 nm using Jenway 7300 spectrophotometer. Microscope examinations were routinely carried out.

[7] = test system: C. autoethanogenum DSM10061 plasmid control (pMTL83157) transformants; test: microbe, parasite or virus in culture
Method: (§7) Anaerobic ethanol was administered at 12 hour post inoculation.
as §5, §6

[8] = test system: C. autoethanogenum DSM10061 pMTL83156-grpE-dnaK-dnaJ transformant; conditions: 5 g/L, 10 g/L and 25 g/L ethanol, up to 102 h post inoculation
Method: as §7, §5
The experiment was first conducted as described above using PETC medium and autotrophic conditions with CO as substrate (FIG. 16a) and afterwards repeated using a different growth medium and heterotrophic conditions with fructose as substrate to rule out the effect of the growth media and substrate (FIG. 16b). A plasmid control was included. […] Static incubation at 37° C. was allowed for 80-100 hours and the growth was monitored by measuring the optical density at a wavelength of 600 nm using Jenway 7300 spectrophotometer. […]

[9] = test system: Clostridium ljungdahlii pMTL83155-groESL (phosphotransacetylase promoter); conditions: construct with the phosphotransacetylase/acetate kinase operon promoter
Method: In addition, the effect of different promoter sequences was evaluated. The two strong C. autoethanogenum promoters of pyruvate:ferredoxin oxidoreductase and phosphotransacetylase/acetate kinase operon were used.

[10] = test system: Clostridium ljungdahlii DSM13583 pMTL83157 plasmid control
[11] = test system: Clostridium ljungdahlii DSM13583 pMTL83156-groESL transformants
[12] = test system: Clostridium ljungdahlii DSM13583 pMTL83156-grpE-dnaK-dnaJ transformants
[13] = test system: Zymomonas mobilis or Lactococcus strains; conditions: cited from earlier work
[14] = test system: majority of bacteria; conditions: cited from earlier work
[15] = test system: Two species of the genus Clostridium; conditions: cited from earlier work
[16] = test system: Clostridium acetobutylicum overproducing GroESL; conditions: overproduction of GroESL; cited from earlier work
[17] = 50 g/L ethanol, serum bottle studies
[18] = Clostridium autoethanogenum, DSM10061, read-out: OD600 inhibition (% reduction in OD600 relative to unchallenged culture)
[19] = 5 g/L ethanol added after 12 hours, 66 hours

## CCO [ethanol]
[1]; 25 g/L ethanol
  growth in presence of ethanol: unable to grow
[1]; [17]
  growth in presence of ethanol: none of the strains was able to grow
[2]; 25 g/L ethanol
  natural tolerance to ethanol: tolerant
[2]; [17]
  growth in presence of ethanol: none of the strains was able to grow
[2]; serum bottles, PETC medium, 37° C., 30 psi steel mill gas
  ethanol concentration at which growth was inhibited: 10-20 g/l
[3]
  growth in presence of ethanol: none of the strains was able to grow
[4]; 45 g/l ethanol
  doublings of culture when challenged with ethanol: 2.14 times
[4]; 60 g/l ethanol
  doublings of culture when challenged with ethanol: 1.27 times
[5]; 45 g/l ethanol, biomass at 600 nm
  doubling of culture when challenged with ethanol: 0.39 doubling
[5]; 60 g/l ethanol
  biomass change when ethanol was added: biomass even dropped
  growth after addition of ethanol: ceased
[6]; 5 g/L ethanol added 12 hour post inoculation
  OD600 reached: 0.38
[6]; 5 g/L, 10 g/L and 25 g/L ethanol at 12 hour post inoculation
  growth relative to plasmid control: significantly earlier growth
[6]; 25 g/L ethanol
  growth in presence of ethanol: able to grow
[6]; 25 g/L ethanol added 12 hour post inoculation
  OD600 reached: 0.31
[6]; 50 g/L ethanol
  growth in presence of ethanol: able to grow
[6]; all levels of ethanol challenge
  biomass relative to plasmid control: higher biomass
[7]; 5 g/L ethanol added 12 hour post inoculation, MMYF medium
  time to exceed OD600 0.25: more than 102 h
[7]; 25 g/L ethanol added 12 hour post inoculation, 78 h post inoculation, MMYF medium
  OD600 reached: 0.29
[7]; [18]
  inhibition at 10000 µg/mL: 74%
  inhibition at 25000 µg/mL: 79%
[8]
  growth inhibition by ethanol challenge relative to plasmid control: significantly less inhibited
[9]
  ethanol tolerance over the wild-type: didn't enhance ethanol tolerance
[10]
  change in OD600: reduction in OD600
[10]; [19]
  OD600: ~0.66
[10]; 10 g/L ethanol added after 12 hours, 101 h post inoculation
  OD600: 0.67
[10]; 25 g/L ethanol added after 12 hours, 30 h post inoculation
  OD600: 0.20
[11]
  change in OD600: reduction in OD600
  ethanol tolerance over the wild-type: significantly enhanced
  time to reach OD600 of ~0.6 relative to plasmid control: significantly earlier
[11]; [19]
  OD600: 0.97
[11]; 25 g/L ethanol added after 12 hours, 36 h post inoculation
  OD600: 0.42
[12]
  OD600 relative to plasmid controls: higher OD600 than plasmid controls
  time to reach OD600 of ~0.6 relative to plasmid control: significantly earlier
[12]; [19]
  OD600: 1.12
[12]; 10 g/L ethanol added after 12 hours, 114 h post inoculation
  OD600: 1.15
[12]; 25 g/L ethanol added after 12 hours, 36 hrs. post inoculation
  OD600: 0.48
[12]; 50 g/L ethanol challenge at 12 hour post inoculation
  increase in OD600: 0.096
[13]
  tolerated ethanol: more than 10%
[14]
  maximum tolerated ethanol: 4-7%

## butanol
[15]
  tolerated butanol level: around 1.5%
[14]
  tolerated butanol level (hardly exceeded): 1.5-2.5%
[16]
  reduction of inhibition by butanol challenge compared to the wild-type: up to 85%
